{"source": "paper PMC8799717", "about": "“Pharmacological targeting PIKfyve and tubulin as an effective treatment strategy for double-hit lymphoma” (Cell Death Discovery, 2022)", "test_in_all_cases": "biochemical", "set-up_in_all_cases": "KINOMEscan active-site-directed competition binding panel, 468 kinases, percent of DMSO control at 1 uM", "settings_in_all_cases": "KINOMEscan binding, percent of DMSO control; read-out: Ctrl%", "key": {"CDC2L2": {"target": "T1, CDC2L2 (Homo sapiens, UniProt Q9UQ88)", "T1 construct": "gene CDK11A"}, "CDK4-cyclinD3": {"target": "T2, CDK4-cyclinD3 (Homo sapiens, UniProt P11802)", "T2 construct": "cyclinD3", "T2 sequence (P11802 whole entry)": "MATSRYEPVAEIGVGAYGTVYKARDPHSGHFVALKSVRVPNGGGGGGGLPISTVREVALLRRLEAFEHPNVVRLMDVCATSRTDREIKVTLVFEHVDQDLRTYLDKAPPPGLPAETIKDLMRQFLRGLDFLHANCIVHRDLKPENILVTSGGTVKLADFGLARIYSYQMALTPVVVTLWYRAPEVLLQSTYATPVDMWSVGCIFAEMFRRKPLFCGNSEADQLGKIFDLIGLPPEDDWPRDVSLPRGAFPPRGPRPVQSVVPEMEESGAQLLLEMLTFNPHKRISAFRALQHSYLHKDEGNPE", "T2 sequence (P30281 whole entry partner)": "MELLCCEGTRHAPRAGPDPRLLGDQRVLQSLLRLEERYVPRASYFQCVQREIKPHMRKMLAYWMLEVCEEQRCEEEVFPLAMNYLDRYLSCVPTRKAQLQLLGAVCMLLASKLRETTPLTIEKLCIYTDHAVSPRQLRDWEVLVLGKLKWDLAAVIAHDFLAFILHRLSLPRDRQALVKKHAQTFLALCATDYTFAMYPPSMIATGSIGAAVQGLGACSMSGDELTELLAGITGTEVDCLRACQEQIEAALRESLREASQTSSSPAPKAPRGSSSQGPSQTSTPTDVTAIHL"}, "CDK8": {"target": "CDK8 (Homo sapiens, UniProt P49336)"}, "CHEK2": {"target": "CHEK2 (Homo sapiens, UniProt O96017)"}, "DCAMKL2": {"target": "T3, DCAMKL2 (Homo sapiens, UniProt Q8N568)", "T3 construct": "gene DCLK2", "T3 sequence (Q8N568 whole entry)": "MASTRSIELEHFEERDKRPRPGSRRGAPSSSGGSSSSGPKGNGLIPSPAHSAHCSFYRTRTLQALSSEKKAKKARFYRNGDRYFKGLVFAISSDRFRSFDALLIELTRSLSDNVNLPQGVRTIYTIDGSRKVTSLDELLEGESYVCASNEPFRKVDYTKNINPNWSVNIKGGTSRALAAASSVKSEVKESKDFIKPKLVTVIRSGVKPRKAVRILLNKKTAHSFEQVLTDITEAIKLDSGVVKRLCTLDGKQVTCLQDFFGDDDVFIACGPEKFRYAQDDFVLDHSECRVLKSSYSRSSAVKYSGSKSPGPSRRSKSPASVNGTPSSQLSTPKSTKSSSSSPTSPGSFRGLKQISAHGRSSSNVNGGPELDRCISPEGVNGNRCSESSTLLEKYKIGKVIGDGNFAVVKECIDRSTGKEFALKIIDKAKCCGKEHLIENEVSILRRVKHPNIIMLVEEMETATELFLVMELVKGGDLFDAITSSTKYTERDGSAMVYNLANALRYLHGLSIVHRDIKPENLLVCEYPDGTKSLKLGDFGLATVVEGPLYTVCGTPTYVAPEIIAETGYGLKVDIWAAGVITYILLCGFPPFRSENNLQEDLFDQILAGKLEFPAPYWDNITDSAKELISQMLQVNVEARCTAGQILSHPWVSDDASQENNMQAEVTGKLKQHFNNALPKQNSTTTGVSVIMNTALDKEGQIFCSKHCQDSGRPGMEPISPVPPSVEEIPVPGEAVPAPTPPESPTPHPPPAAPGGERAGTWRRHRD"}, "DRAK1": {"target": "T4, DRAK1 (Homo sapiens, UniProt Q9UEE5)", "T4 construct": "gene STK17A"}, "DYRK2": {"target": "DYRK2 (Homo sapiens, UniProt Q92630)", "sequence (Q92630 whole entry)": "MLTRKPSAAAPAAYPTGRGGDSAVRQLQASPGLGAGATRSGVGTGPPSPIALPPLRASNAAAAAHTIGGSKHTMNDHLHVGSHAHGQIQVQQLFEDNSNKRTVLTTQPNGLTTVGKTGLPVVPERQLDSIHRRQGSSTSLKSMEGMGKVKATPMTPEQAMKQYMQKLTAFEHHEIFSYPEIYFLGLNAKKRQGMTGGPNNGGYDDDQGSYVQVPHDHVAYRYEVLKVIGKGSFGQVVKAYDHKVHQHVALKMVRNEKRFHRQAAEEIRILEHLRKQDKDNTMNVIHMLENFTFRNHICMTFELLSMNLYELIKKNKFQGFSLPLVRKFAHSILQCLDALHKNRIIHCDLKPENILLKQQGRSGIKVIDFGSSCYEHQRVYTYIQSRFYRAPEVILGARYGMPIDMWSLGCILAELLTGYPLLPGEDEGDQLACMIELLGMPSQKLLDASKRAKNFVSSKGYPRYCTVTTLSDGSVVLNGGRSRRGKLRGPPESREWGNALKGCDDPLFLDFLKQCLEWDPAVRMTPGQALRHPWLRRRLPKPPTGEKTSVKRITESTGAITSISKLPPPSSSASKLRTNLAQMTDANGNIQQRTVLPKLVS"}, "EPHA3": {"target": "EPHA3 (Homo sapiens, UniProt P29320)"}, "FGFR3": {"target": "FGFR3 (Homo sapiens, UniProt P22607)"}, "MAP3K4": {"target": "MAP3K4 (Homo sapiens, UniProt Q9Y6R4)"}, "MLCK": {"target": "T5, MLCK (Homo sapiens, UniProt Q32MK0)", "T5 construct": "gene MYLK3", "T5 sequence (Q32MK0 whole entry)": "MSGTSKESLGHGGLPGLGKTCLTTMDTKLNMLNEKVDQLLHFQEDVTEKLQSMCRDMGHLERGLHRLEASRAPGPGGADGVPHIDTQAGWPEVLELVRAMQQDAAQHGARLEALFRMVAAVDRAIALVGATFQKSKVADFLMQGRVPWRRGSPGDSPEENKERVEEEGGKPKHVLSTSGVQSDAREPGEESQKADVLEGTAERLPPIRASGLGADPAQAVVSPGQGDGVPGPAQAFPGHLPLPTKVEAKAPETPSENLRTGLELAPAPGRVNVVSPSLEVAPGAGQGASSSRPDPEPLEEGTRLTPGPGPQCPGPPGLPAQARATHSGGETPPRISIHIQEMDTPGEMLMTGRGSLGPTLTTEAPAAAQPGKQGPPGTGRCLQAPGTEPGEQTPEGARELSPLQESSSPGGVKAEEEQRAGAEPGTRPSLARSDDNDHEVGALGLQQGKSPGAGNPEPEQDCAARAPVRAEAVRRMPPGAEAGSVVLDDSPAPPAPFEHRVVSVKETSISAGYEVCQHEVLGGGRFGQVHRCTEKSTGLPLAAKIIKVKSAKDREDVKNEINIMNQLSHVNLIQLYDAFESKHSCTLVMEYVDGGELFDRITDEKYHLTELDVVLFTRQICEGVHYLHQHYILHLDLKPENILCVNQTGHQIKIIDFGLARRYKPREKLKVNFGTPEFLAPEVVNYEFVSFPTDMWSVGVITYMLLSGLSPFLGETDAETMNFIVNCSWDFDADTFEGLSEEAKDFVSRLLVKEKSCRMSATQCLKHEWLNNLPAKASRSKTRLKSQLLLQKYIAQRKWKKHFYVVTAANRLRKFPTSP"}, "MST3": {"target": "T6, MST3 (Homo sapiens, UniProt Q9Y6E0)", "T6 construct": "gene STK24"}, "MTOR": {"target": "MTOR (Homo sapiens, UniProt P42345)"}, "OSR1": {"target": "T7, OSR1 (Homo sapiens, UniProt O95747)", "T7 construct": "gene OXSR1", "T7 sequence (O95747 whole entry)": "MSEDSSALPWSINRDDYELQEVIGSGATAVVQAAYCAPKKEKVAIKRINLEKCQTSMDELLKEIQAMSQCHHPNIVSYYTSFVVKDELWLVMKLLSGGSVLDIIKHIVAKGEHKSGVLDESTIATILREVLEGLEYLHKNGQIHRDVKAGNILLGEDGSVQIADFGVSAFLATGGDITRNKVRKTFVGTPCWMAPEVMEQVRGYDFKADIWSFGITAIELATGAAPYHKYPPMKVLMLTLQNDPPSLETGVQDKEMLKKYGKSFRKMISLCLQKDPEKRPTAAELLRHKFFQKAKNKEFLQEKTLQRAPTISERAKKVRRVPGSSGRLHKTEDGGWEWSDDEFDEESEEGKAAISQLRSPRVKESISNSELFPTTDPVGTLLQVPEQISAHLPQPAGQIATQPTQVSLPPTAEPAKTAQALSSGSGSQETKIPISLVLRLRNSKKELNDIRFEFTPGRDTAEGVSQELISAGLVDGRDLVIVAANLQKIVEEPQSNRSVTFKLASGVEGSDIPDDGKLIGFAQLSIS"}, "PFTAIRE2": {"target": "T8, PFTAIRE2 (Homo sapiens, UniProt Q96Q40)", "T8 construct": "gene CDK15"}, "PIK3CD": {"target": "PIK3CD (Homo sapiens, UniProt O00329)", "sequence (O00329 whole entry)": "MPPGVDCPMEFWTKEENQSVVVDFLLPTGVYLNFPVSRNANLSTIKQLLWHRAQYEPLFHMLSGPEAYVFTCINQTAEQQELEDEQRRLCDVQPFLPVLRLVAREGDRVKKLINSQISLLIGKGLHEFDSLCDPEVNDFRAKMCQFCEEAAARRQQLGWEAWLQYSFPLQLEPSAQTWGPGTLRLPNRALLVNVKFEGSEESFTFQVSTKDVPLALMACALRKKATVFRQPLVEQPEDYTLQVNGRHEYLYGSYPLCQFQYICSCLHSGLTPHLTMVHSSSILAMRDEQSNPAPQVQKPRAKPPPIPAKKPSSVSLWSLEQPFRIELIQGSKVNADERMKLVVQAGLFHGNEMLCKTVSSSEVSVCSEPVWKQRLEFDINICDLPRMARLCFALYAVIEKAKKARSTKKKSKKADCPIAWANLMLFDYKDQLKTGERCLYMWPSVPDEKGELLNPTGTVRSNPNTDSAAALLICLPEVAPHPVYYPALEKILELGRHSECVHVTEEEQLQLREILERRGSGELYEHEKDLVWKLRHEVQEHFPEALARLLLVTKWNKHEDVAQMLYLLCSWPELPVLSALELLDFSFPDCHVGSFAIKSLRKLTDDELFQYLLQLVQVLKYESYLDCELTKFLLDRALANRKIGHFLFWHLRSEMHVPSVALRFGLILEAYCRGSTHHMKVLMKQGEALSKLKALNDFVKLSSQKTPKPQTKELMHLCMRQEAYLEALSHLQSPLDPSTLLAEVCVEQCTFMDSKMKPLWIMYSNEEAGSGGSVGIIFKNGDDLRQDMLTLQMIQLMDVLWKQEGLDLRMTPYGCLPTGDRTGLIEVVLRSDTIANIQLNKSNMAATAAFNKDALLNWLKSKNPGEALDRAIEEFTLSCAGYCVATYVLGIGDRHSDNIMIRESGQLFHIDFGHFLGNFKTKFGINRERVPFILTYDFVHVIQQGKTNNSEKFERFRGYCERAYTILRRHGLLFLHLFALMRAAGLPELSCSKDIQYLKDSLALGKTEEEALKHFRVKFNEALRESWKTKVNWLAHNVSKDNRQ"}, "PIM3": {"target": "PIM3 (Homo sapiens, UniProt Q86V86)"}, "PKAC-alpha": {"target": "T9, PKAC-alpha (Homo sapiens, UniProt P17612)", "T9 construct": "gene PRKACA"}, "PRKCI": {"target": "PRKCI (Homo sapiens, UniProt P41743)", "sequence (P41743 whole entry)": "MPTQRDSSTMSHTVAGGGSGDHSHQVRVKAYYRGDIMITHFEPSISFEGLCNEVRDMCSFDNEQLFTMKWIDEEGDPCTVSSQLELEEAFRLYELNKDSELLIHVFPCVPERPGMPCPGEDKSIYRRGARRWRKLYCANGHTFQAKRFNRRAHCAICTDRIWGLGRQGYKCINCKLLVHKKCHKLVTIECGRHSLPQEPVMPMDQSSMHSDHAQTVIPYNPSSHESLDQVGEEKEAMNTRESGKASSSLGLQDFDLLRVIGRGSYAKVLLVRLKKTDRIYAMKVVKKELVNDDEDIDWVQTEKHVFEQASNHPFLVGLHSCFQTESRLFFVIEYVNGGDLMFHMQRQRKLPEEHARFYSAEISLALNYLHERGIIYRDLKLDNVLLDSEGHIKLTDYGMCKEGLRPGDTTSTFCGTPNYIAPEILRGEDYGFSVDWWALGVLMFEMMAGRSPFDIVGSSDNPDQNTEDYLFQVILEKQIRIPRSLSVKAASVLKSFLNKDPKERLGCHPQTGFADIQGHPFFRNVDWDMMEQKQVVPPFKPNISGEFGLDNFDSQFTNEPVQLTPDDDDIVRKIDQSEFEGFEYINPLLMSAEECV"}, "PRKR": {"target": "T10, PRKR (Homo sapiens, UniProt P19525)", "T10 construct": "gene EIF2AK2"}, "PRP4": {"target": "T11, PRP4 (Homo sapiens, UniProt Q13523)", "T11 construct": "gene PRPF4B"}, "STK16": {"target": "STK16 (Homo sapiens, UniProt O75716)"}, "TNK2": {"target": "TNK2 (Homo sapiens, UniProt Q07912)"}, "YSK4": {"target": "T12, YSK4 (Homo sapiens, UniProt Q56UN5)", "T12 construct": "gene MAP3K19"}}}
{"smiles": "Cc1ccc(NC(=O)c2cccc(C(F)(F)F)c2)cc1Nc1cc(-c2cccnc2)nc2[nH]ccc12", "note": "[HZX-02-059]", "values": [{"measurement": "remaining binding at 1 µM", "setting": "CDC2L2", "result": 80, "unit": "%"}, {"measurement": "remaining binding at 1 µM", "setting": "CDK4-cyclinD3", "result": 93, "unit": "%"}, {"measurement": "remaining binding at 1 µM", "setting": "CDK8", "result": 91, "unit": "%"}, {"measurement": "remaining binding at 1 µM", "setting": "CHEK2", "result": 61, "unit": "%"}, {"measurement": "remaining binding at 1 µM", "setting": "DCAMKL2", "result": 96, "unit": "%"}, {"measurement": "remaining binding at 1 µM", "setting": "DRAK1", "result": 83, "unit": "%"}, {"measurement": "remaining binding at 1 µM", "setting": "DYRK2", "result": 88, "unit": "%"}, {"measurement": "remaining binding at 1 µM", "setting": "EPHA3", "result": 27, "unit": "%"}, {"measurement": "remaining binding at 1 µM", "setting": "FGFR3", "result": 86, "unit": "%"}, {"measurement": "remaining binding at 1 µM", "setting": "MAP3K4", "result": 100, "unit": "%"}, {"measurement": "remaining binding at 1 µM", "setting": "MLCK", "result": 100, "unit": "%"}, {"measurement": "remaining binding at 1 µM", "setting": "MST3", "result": 100, "unit": "%"}, {"measurement": "remaining binding at 1 µM", "setting": "MTOR", "result": 99, "unit": "%"}, {"measurement": "remaining binding at 1 µM", "setting": "OSR1", "result": 97, "unit": "%"}, {"measurement": "remaining binding at 1 µM", "setting": "PFTAIRE2", "result": 81, "unit": "%"}, {"measurement": "remaining binding at 1 µM", "setting": "PIK3CD", "result": 97, "unit": "%"}, {"measurement": "remaining binding at 1 µM", "setting": "PIM3", "result": 89, "unit": "%"}, {"measurement": "remaining binding at 1 µM", "setting": "PKAC-alpha", "result": 94, "unit": "%"}, {"measurement": "remaining binding at 1 µM", "setting": "PRKCI", "result": 71, "unit": "%"}, {"measurement": "remaining binding at 1 µM", "setting": "PRKR", "result": 95, "unit": "%"}, {"measurement": "remaining binding at 1 µM", "setting": "PRP4", "result": 69, "unit": "%"}, {"measurement": "remaining binding at 1 µM", "setting": "STK16", "result": 96, "unit": "%"}, {"measurement": "remaining binding at 1 µM", "setting": "TNK2", "result": 98, "unit": "%"}, {"measurement": "remaining binding at 1 µM", "setting": "YSK4", "result": 100, "unit": "%"}]}
